Test results published in paper PMC11790914, “Chemogenomics for steroid hormone receptors (NR3)” (Communications Chemistry, 2025).
Values joined by “and” are separate entries in the source; they are usually repeats but may differ in a detail not shown here. Identical values can stand only once. Like-named read-outs stand apart in the source and are kept apart here.

What was measured:
[1] = target: T1, ABL1 (Homo sapiens, UniProt P00519); assay: Liability panel screening by DSF: ABL1; format: binding; conditions: read-out: Mean ΔTM ABL1
T1 construct: made in house
T1 sequence (P00519 whole entry, species assumed): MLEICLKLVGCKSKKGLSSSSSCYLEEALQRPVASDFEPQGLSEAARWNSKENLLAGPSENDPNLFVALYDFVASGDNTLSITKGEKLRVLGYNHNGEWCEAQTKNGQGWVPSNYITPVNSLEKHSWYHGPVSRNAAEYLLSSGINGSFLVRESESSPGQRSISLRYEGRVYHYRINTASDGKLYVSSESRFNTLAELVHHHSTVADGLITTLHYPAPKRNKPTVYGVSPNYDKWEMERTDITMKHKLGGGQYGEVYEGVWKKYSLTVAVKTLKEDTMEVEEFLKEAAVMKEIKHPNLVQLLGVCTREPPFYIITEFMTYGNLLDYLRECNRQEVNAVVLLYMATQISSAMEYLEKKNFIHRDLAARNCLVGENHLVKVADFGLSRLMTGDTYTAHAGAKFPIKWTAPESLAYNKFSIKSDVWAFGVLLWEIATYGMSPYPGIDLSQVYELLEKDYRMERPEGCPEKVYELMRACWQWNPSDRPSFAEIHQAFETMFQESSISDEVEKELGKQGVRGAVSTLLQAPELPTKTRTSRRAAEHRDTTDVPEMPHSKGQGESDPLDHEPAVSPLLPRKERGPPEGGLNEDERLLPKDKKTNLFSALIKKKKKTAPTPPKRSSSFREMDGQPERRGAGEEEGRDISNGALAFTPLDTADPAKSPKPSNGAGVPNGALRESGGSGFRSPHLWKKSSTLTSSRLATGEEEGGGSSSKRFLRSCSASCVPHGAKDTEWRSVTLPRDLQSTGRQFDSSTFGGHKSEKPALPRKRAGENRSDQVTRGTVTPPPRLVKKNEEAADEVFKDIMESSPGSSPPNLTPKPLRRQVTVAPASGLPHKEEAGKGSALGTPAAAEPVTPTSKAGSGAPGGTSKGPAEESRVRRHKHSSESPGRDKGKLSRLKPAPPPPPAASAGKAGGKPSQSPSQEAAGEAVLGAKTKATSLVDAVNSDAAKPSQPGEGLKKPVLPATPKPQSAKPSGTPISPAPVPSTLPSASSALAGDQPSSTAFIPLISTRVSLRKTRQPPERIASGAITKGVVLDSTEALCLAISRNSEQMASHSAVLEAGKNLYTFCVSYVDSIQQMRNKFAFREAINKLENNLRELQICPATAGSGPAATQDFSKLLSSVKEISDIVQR
How it was run: (§1)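 ∆Tm in K was taken from Boltzmann-fitted unfolding inflection points, run in duplicate with a temperature ramp of 3 °C per minute up to 85 °C. Each recombinant protein (2 µM) was in HEPES 10 mM pH 7.5 and NaCl 500 mM, with SYPRO Orange dye at 1:1000.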

[2] = system: ATF6 activity in Hela ATF6 reporter cells; assay: Endoplasmic reticulum stress assay (ATF6 Renilla luciferase reporter, tunicamycin); format: cell-based; conditions: for activity at 1 µM: Homo sapiens, HeLa, single replicates n=1 to n=5, read-out: ER stress [rel. ATF6 activity]
How it was run: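 ER stress was induced by 100 ng/mL tunicamycin added 4 h after compound (0.1% DMSO) to HeLa ATF6 reporter cells. After 18 h more, Renilla luciferase signal was read and expressed relative to DMSO control, n=5 biological replicates.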

[3] = target: T2, TRIM24 (Homo sapiens, UniProt O15164); assay: Liability panel screening by DSF: TRIM24; format: binding; conditions: read-out: Mean ΔTM TRIM24
T2 construct: This panel comprised ten highly ligandable kinases and bromodomains; made in house
T2 sequence (O15164 899-1004 limits assumed): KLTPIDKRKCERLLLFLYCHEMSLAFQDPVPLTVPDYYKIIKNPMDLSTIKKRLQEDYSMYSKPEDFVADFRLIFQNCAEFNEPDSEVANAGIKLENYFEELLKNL
How it was run: as §1

[4] = system: NR3A2 (ERβ); conditions: cited from earlier work; for IC50: (lit.), ref Supplementary Table 1, read-out: Potency [nM] IC50, NR3A2 (ERβ)
[5] = system: HEK293T cells; assay: Cytotoxicity: necrosis induction (red fluorescent dye for permeable plasma membranes); format: cell-based; conditions: 1 µM, 24 h, necrotic cell count normalized to 0.1% DMSO, single replicates;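 further: compounds applied in DMEM high glucose with 0.1% FCS and 0.1% DMSO, necrotic HEK293T cells counted by red staining of cells whose plasma membranes had become permeable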
[6] = target: T3, CDK2 (Homo sapiens, UniProt P24941); assay: Liability panel screening by DSF: CDK2; format: binding; conditions: read-out: Mean ΔTM CDK2
T3 construct: made in house
How it was run: as §1

[7] = system: HEK293T cells; assay: Cytotoxicity: apoptosis induction (caspase-3/7 DEVD fluorogenic DNA dye); conditions: 1 µM; HEK293T, 24 h; apoptotic cell count normalized to 0.1% DMSO; single replicates
[8] = target: T4, GSK3B (Homo sapiens, UniProt P49841); assay: Liability panel screening by DSF: GSK3B; format: binding; conditions: read-out: Mean ΔTM GSK3B
T4 construct: made in house
T4 sequence (P49841 whole entry, species assumed): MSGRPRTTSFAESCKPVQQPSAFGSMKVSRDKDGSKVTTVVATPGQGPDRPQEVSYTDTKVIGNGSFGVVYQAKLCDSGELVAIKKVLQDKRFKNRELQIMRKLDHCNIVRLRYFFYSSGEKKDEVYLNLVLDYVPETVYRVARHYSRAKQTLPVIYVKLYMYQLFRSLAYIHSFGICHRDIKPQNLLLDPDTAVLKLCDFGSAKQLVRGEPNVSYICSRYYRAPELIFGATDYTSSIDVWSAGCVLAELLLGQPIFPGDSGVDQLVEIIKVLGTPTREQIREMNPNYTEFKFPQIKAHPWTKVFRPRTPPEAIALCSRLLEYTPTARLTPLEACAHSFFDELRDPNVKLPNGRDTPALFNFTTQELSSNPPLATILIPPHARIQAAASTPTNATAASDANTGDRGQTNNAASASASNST

[9] = target: T5, BRPF1 (Homo sapiens, UniProt P55201); assay: Liability panel screening by DSF: BRPF1; format: binding; conditions: read-out: Mean ΔTM BRPF1
T5 construct: This panel comprised ten highly ligandable kinases and bromodomains; made in house
T5 sequence (P55201 628-732 limits assumed): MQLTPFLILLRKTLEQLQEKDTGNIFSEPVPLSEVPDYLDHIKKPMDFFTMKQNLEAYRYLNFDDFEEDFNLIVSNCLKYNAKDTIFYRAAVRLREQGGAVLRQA
How it was run: as §1

[10] = target: T6, AURKA (Homo sapiens, UniProt O14965); assay: Liability panel screening by DSF: AURKA; format: binding; conditions: read-out: Mean ΔTM AURKA
T6 construct: made in house
T6 sequence (O14965 1-403): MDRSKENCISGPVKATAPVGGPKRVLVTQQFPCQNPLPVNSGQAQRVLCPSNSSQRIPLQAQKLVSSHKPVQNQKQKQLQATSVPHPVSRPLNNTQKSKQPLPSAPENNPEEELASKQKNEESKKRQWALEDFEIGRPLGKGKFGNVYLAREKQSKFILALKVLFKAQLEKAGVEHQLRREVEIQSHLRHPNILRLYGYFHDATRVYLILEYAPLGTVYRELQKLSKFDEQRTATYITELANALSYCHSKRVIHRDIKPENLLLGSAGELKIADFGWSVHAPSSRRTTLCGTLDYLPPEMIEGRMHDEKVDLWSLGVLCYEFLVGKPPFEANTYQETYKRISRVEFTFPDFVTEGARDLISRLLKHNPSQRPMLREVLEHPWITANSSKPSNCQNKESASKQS
How it was run: as §1

[11] = system: NF-κB activity in HEK293 NF-κB reporter cells; assay: NF-kB activity assay (GFP reporter, ionomycin/PMA); format: cell-based; conditions: for Mean NFκB response: n=3; for NF-κB activity (inflammatory response to ionomycin/PMA): HEK293 NF-κB reporter cells, compounds at recommended concentrations, imaged over 24 h, n = 3
How it was run: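 Reporter readout: GFP-expressing cells normalized to confluence, imaged every 90 min across 24 h after ionomycin (100 ng/mL)/PMA (10 ng/mL) stimulation of HEK293 cells pre-treated 4 h with compound (0.1% DMSO); triplicate independent experiments.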

[12] = target: T7, CSNK1D (Homo sapiens, UniProt P48730); assay: Liability panel screening by DSF: CSNK1D; format: binding; conditions: read-out: Mean ΔTM CSNK1D
T7 construct: made in house
T7 sequence (P48730 whole entry, species assumed): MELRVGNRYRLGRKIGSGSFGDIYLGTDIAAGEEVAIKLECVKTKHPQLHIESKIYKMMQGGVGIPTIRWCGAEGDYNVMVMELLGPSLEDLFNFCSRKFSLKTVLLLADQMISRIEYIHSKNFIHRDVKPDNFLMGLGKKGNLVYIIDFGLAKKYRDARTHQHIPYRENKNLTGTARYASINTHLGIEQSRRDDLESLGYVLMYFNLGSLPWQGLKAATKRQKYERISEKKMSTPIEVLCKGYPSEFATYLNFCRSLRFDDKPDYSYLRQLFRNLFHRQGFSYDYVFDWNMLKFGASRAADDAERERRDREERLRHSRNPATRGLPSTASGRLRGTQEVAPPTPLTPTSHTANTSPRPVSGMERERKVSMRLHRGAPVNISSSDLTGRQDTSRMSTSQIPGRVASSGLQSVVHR
How it was run: as §1

[13] = target: T8, MAPK1 (Homo sapiens, UniProt P28482); assay: Liability panel screening by DSF: MAPK1; format: binding; conditions: read-out: Mean ΔTM MAPK1
T8 construct: made in house
T8 sequence (P28482 whole entry, species assumed): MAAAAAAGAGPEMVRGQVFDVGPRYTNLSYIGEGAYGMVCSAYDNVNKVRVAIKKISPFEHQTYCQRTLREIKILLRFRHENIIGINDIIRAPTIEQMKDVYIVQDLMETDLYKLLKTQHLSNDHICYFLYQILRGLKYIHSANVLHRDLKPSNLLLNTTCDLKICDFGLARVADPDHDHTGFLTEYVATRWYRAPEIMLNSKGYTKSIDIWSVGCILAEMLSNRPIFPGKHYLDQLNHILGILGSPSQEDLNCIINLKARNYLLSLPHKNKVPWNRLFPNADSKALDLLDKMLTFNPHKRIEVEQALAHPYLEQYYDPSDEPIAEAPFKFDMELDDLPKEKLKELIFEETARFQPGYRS
How it was run: as §1

[14] = system: HEK293T cells; assay: Cytotoxicity: growth-rate (change in confluence over 24 h); conditions: 1 µM, normalized to 0.1% DMSO control, single replicates (n=1...)
[15] = system: HEK293T cells; assay: Cytotoxicity: metabolic activity (WST-8 / CCK-8 assay); conditions: 1 µM; HEK293T, 24 h; WST-8; normalized to 0.1% DMSO; single replicates
[16] = target: T9, BRD4 (Homo sapiens, UniProt O60885); assay: Liability panel screening by DSF: BRD4; format: binding; conditions: read-out: Mean ΔTM BRD4
T9 construct: This panel comprised ten highly ligandable kinases and bromodomains; made in house
How it was run: as §1

[17] = target: T10, FGFR3 (Homo sapiens, UniProt P22607); assay: Liability panel screening by DSF: FGFR3; format: binding; conditions: read-out: Mean ΔTM FGFR3
T10 construct: made in house
T10 sequence (P22607 23-806, species assumed): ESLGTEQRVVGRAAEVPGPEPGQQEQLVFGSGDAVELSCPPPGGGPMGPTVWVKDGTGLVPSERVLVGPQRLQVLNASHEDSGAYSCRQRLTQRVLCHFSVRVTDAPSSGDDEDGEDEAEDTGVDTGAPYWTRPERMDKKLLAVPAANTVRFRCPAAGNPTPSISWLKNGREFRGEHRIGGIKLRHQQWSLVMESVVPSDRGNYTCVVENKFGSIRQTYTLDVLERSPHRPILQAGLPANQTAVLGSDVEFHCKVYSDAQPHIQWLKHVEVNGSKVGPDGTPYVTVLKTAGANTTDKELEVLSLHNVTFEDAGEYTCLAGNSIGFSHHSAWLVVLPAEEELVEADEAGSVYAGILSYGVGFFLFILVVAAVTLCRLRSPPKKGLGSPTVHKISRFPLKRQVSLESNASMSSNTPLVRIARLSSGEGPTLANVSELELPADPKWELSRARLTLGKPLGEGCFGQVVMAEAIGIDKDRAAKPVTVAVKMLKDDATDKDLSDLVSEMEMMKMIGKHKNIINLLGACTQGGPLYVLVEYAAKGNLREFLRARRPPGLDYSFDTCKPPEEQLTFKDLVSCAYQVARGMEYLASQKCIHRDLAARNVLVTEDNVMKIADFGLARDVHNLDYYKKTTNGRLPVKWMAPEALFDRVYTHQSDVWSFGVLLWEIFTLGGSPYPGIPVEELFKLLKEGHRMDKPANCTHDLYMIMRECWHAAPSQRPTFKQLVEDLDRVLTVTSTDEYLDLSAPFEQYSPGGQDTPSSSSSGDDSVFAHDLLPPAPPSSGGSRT
How it was run: as §1

[18] = known off-target outside the NR family at the recommended concentration; ref Supplementary Table 1 (superscript references); cited from earlier work
[19] = system: NR3A1 (ERα); conditions: ERα remaining (degrader); ref Supplementary Table 1; cited from earlier work

| Compound | activity at 1 µM [2] [%] | IC50 [4] [nM] | Necrosis induction [NI] [5] | Apoptosis induction [AI] [7] | Mean NFκB response ([11]; 1 µM, 1,5 h) | Mean NFκB response ([11]; 1 µM, 4,5 h) | Mean NFκB response ([11]; 1 µM, 7,5 h) | Mean NFκB response ([11]; 1 µM, 10,5 h) | Mean NFκB response ([11]; 1 µM, 13,5 h) | Mean NFκB response ([11]; 1 µM, 16,6 h) | Mean NFκB response ([11]; 1 µM, 19,5 h) | Mean NFκB response ([11]; 1 µM, 22,5 h) | Mean NFκB response ([11]; 1 µM, 3 h) | Mean NFκB response ([11]; 1 µM, 6 h) | Mean NFκB response ([11]; 1 µM, 9 h) | Mean NFκB response ([11]; 1 µM, 12 h) | Mean NFκB response ([11]; 1 µM, 15 h) | Mean NFκB response ([11]; 1 µM, 18 h) | Mean NFκB response ([11]; 1 µM, 21 h) | Mean NFκB response ([11]; 1 µM, 24 h) | also measured |
| --- | --- | --- | --- | --- | --- | --- | --- | --- | --- | --- | --- | --- | --- | --- | --- | --- | --- | --- | --- | --- | --- |
| CC[C@@H]1Cc2cc(O)ccc2C2=C1c1ccc(O)cc1C[C@H]2CC [(R,R)-THC] | 66 | ~4 | 1.00 and 0.96 and 0.79 and 1.43 | -0.98 and -0.31 and -0.46 and 0.85 and 0.74 and 1.53 | 3557.96 GFP+-cells/confluence ∙ 1000 | 4261.58 GFP+-cells/confluence ∙ 1000 | 9104.56 GFP+-cells/confluence ∙ 1000 | 19176.29 GFP+-cells/confluence ∙ 1000 | 27638.90 GFP+-cells/confluence ∙ 1000 | 33810.34 GFP+-cells/confluence ∙ 1000 | 37834.35 GFP+-cells/confluence ∙ 1000 | 40864.97 GFP+-cells/confluence ∙ 1000 | 3459.65 GFP+-cells/confluence ∙ 1000 | 5471.05 GFP+-cells/confluence ∙ 1000 | 14572.22 GFP+-cells/confluence ∙ 1000 | 23454.30 GFP+-cells/confluence ∙ 1000 | 30888.37 GFP+-cells/confluence ∙ 1000 | 35947.21 GFP+-cells/confluence ∙ 1000 | 39332.93 GFP+-cells/confluence ∙ 1000 | 42047.68 GFP+-cells/confluence ∙ 1000 | ΔTm at 20 µM [1]: 5.33 °C; ATF6 activity (tunicamycin-induced endoplasmic reticulum stress) ([2]; Hela ATF6 reporter cells, tunicamycin 100 ng/mL, 18 h, compounds at recommended concentrations, n = 5): mediated resolution of the tunicamycin-induced endoplasmic reticulum stress; ΔTm at 20 µM [3]: 0.93 °C; rel. activity from literature, NR3A2 (ERβ): RBA to estradiol ([4]; relative binding affinity to estradiol): 25 ± 6 RBA; ΔTm at 20 µM [6]: 1.76 °C; ΔTm at 20 µM [8]: 1.59 °C; ΔTm at 20 µM [9]: -0.77 °C; ΔTm at 20 µM [10]: 1.62 °C; NF-κB activity (inflammatory response to ionomycin/PMA) [11]: no impact on NF-κB activity; ΔTm at 20 µM [12]: -0.65 °C; ΔTm at 20 µM [13]: 0.61 °C; Growth rate [GR] [14]: 1.15 and 0.31 and 1.59 and 1.75 and 1.08 and 0.52 and 0.68 and 0.76 and 0.64 and 0.98; Metabolic activity [MA] [15]: 1.06 and 1.04 (2×) and 0.92 and 1.05 (2×) and 0.98 and 0.82; ΔTm at 20 µM [16]: -3.36 °C; ΔTm at 20 µM [17]: 0.08 °C |
| C[C@]12CC[C@@H]3c4ccc(O)cc4C[C@@H](CCCCCCCCC[S+]([O-])CCCC(F)(F)C(F)(F)F)[C@H]3[C@@H]1CC[C@@H]2O (stereo partly shown) [Fulvestrant] | 89 | 4 | 0.62 and 0.70 and 0.56 and 0.98 | 0.62 (2×) and 0.98 and 0.59 and 0.64 and 0.41 | 2679.37 GFP+-cells/confluence ∙ 1000 | 3148.36 GFP+-cells/confluence ∙ 1000 | 4671.22 GFP+-cells/confluence ∙ 1000 | 6295.62 GFP+-cells/confluence ∙ 1000 | 7325.42 GFP+-cells/confluence ∙ 1000 | 8293.33 GFP+-cells/confluence ∙ 1000 | 8696.67 GFP+-cells/confluence ∙ 1000 | 9540.00 GFP+-cells/confluence ∙ 1000 | 2744.06 GFP+-cells/confluence ∙ 1000 | 3642.03 GFP+-cells/confluence ∙ 1000 | 5613.40 GFP+-cells/confluence ∙ 1000 | 7011.92 GFP+-cells/confluence ∙ 1000 | 8097.95 GFP+-cells/confluence ∙ 1000 | 8436.67 GFP+-cells/confluence ∙ 1000 | 9413.33 GFP+-cells/confluence ∙ 1000 | 10080.00 GFP+-cells/confluence ∙ 1000 | ΔTm at 20 µM ([1]; DSF, 20 µM, n=2): -4.09 °C; rel. activity from literature, NR3A2 (ERβ): % rem. act. of estradiol ([4]; rem. act. of estradiol): 9%; ΔTm at 20 µM ([6]; DSF, 20 µM, n=2): 0 °C; ΔTm at 20 µM ([8]; DSF, 20 µM, n=2): 0.72 °C; ΔTm at 20 µM ([9]; DSF, 20 µM, n=2): 0 °C; ΔTm at 20 µM ([10]; DSF, 20 µM, n=2): -0.16 °C; NF-κB activity (inflammatory response to ionomycin/PMA) [11]: reducing the inflammatory response; ΔTm at 20 µM ([12]; DSF, 20 µM, n=2): -4.77 °C; ΔTm at 20 µM ([13]; DSF, 20 µM, n=2): -12 °C; Growth rate [GR] [14]: 0.67 and 2.29 and 0.97 and 0.95 and 0.64 and 0.78 and 0.76 and 0.84 and 1.55 and 3.07; Other off-target at recom. conc. [18]: sEH; Metabolic activity [MA] [15]: 0.95 (2×) and 1.00 and 1.04 and 1.03 and 0.99 and 1.20 (2×); ΔTm at 20 µM ([16]; DSF, 20 µM, n=2): -2.93 °C; ΔTm at 20 µM ([17]; DSF, 20 µM, n=2): -3.24 °C; rel. activity from literature, NR3A1 (ERα): % ERα remaining [19]: 18% |
